Laboratory results: ChEMBL document CHEMBL1201862, “PubChem BioAssay data set” (2004)
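Each compound was tested at five concentrations against cells in 96-well plates for 48 hours. Abbreviation: GI50, concentration required for 50% inhibition of growth.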 Active and inactive are the calls of the source. No stated cut-off is given here; in the data, active = GI50 up to about 1.1 µM and inactive = higher.

Experiments:
Assay in all cases: NCI-60 cell line screen, 48 h
A498 = test system: A498
CCRF-CEM = test system: CCRF-CEM
OVCAR-5 = test system: OVCAR-5
UACC-257 = test system: UACC-257
OVCAR-8 = test system: OVCAR-8
HCT-116 = test system: HCT-116
MDA-MB-435 = test system: MDA-MB-435
RPMI-8226 = test system: RPMI-8226
HOP-62 = test system: HOP-62
MDA-MB-231 = test system: MDA-MB-231
A549 = test system: A549
SK-MEL-28 = test system: SK-MEL-28
MDA-N = test system: MDA-N
EKVX = test system: EKVX
OVCAR-3 = test system: OVCAR-3
SF-268 = test system: SF-268
HT-29 = test system: HT-29
KM12 = test system: KM12
TK-10 = test system: TK-10

SMILES | GI50 (A498) | GI50 (CCRF-CEM) | GI50 (OVCAR-5) | GI50 (UACC-257) | GI50 (OVCAR-8) | GI50 (HCT-116) | GI50 (MDA-MB-435) | GI50 (RPMI-8226) | GI50 (HOP-62) | GI50 (MDA-MB-231) | GI50 (A549) | GI50 (SK-MEL-28) | GI50 (MDA-N) | GI50 (EKVX) | GI50 (OVCAR-3) | GI50 (SF-268) | GI50 (HT-29) | GI50 (KM12) | GI50 (TK-10)
COc1ccc(CN2C[C@H]3[C@@H](CC(=O)O[C@H]3C)CC2=O)cc1 | > 100 µM (inactive) | > 100 µM (inactive) | > 100 µM (inactive) | > 100 µM (inactive) | > 100 µM (inactive) | > 100 µM (inactive) | > 100 µM (inactive) | > 100 µM (inactive) | > 100 µM (inactive) | > 100 µM (inactive) | > 100 µM (inactive) | > 100 µM (inactive) | > 100 µM (inactive) | > 100 µM (inactive) | > 100 µM (inactive) | > 100 µM (inactive) | > 100 µM (inactive) | > 100 µM (inactive) | –
NC(=O)NC(=O)c1ccc(NC(=O)CBr)cc1 | 14.3 µM (inactive) | 0.0769 µM (active) | 2.75 µM (inactive) | 1.94 µM (inactive) | 2.26 µM (inactive) | 0.83 µM (active) | 1.53 µM (inactive) | 1.1 µM (active) | 1.94 µM (inactive) | 2.49 µM (inactive) | 14.1 µM (inactive) | 3.2 µM (inactive) | 2.07 µM (inactive) | 2.38 µM (inactive) | 0.843 µM (active) | 1.4 µM (inactive) | 1.73 µM (inactive) | 4 µM (inactive) | 1.31 µM (inactive)
O=Cc1c2n(c3ccccc13)N[C@@](Cc1ccc(O)cc1)(C(=O)O)C2 | > 100 µM (inactive) | 34.5 µM (inactive) | > 100 µM (inactive) | 31 µM (inactive) | > 100 µM (inactive) | 38.3 µM (inactive) | > 100 µM (inactive) | > 100 µM (inactive) | 46.7 µM (inactive) | > 100 µM (inactive) | > 100 µM (inactive) | > 100 µM (inactive) | > 100 µM (inactive) | > 100 µM (inactive) | 19.5 µM (inactive) | 36 µM (inactive) | > 100 µM (inactive) | > 100 µM (inactive) | > 100 µM (inactive)
CC(=O)NC1C(OCc2ccccc2)OC(CO)C(O)C1OCC(=O)N[C@@H](C)C(=O)N[C@H](CCC(=O)NCCNCCNc1c2ccccc2nc2cccc([N+](=O)[O-])c12)C(N)=O (some centres undefined) | 19.8 µM (inactive) | 24 µM (inactive) | 53.3 µM (inactive) | 21.2 µM (inactive) | 27.4 µM (inactive) | 19.5 µM (inactive) | 29.6 µM (inactive) | 24.4 µM (inactive) | 41.4 µM (inactive) | 34.8 µM (inactive) | 35.4 µM (inactive) | > 100 µM (inactive) | 33.1 µM (inactive) | 31.6 µM (inactive) | 44 µM (inactive) | – | 23.6 µM (inactive) | 24.2 µM (inactive) | 31.8 µM (inactive)
N#Cc1ccc(C(=O)/C=C/c2ccc(O)c(O)c2)cc1 | 17.7 µM (inactive) | 1.4 µM (inactive) | 17.7 µM (inactive) | 16.2 µM (inactive) | > 40.4 µM (inactive) | 10.5 µM (inactive) | 14.4 µM (inactive) | 3.1 µM (inactive) | 17.9 µM (inactive) | 15.6 µM (inactive) | 15.3 µM (inactive) | 15.5 µM (inactive) | 14.9 µM (inactive) | 17.2 µM (inactive) | 15.8 µM (inactive) | 14.1 µM (inactive) | 16.4 µM (inactive) | 13.9 µM (inactive) | 14.1 µM (inactive)
Cc1cc2[nH]c(Cl)c(/C=C3\C(=O)Nc4ccccc43)c2cc1O | 4.05 µM (inactive) | 1.2 µM (inactive) | 6.46 µM (inactive) | 11.2 µM (inactive) | 3.75 µM (inactive) | 2.8 µM (inactive) | 0.29 µM (active) | 2.7 µM (inactive) | 4.93 µM (inactive) | 3.09 µM (inactive) | 5.08 µM (inactive) | 9.71 µM (inactive) | 0.379 µM (active) | 4.7 µM (inactive) | 4.61 µM (inactive) | 4.69 µM (inactive) | 4.07 µM (inactive) | 2.92 µM (inactive) | 9.71 µM (inactive)
NCC1OC(n2cnc3c(N)ncnc32)CC1O (centres undefined) | > 100 µM (inactive) | > 100 µM (inactive) | > 100 µM (inactive) | > 100 µM (inactive) | > 100 µM (inactive) | > 100 µM (inactive) | > 100 µM (inactive) | > 100 µM (inactive) | > 100 µM (inactive) | > 100 µM (inactive) | > 100 µM (inactive) | > 100 µM (inactive) | > 100 µM (inactive) | > 100 µM (inactive) | > 100 µM (inactive) | > 100 µM (inactive) | > 100 µM (inactive) | > 100 µM (inactive) | > 100 µM (inactive)
CCC(CC)(CO)CNc1cc(Cl)nc(N)n1 | > 100 µM (inactive) | > 100 µM (inactive) | > 100 µM (inactive) | > 100 µM (inactive) | > 100 µM (inactive) | > 100 µM (inactive) | > 100 µM (inactive) | 92.9 µM (inactive) | > 100 µM (inactive) | > 100 µM (inactive) | > 100 µM (inactive) | > 100 µM (inactive) | 89.5 µM (inactive) | 79.3 µM (inactive) | > 100 µM (inactive) | 55.6 µM (inactive) | > 100 µM (inactive) | > 100 µM (inactive) | > 100 µM (inactive)
CC(C)[Si](OC1=C(C(=O)N(C)c2ccccc2Cl)CCCC1)(C(C)C)C(C)C | 16.9 µM (inactive) | 12.7 µM (inactive) | 12.8 µM (inactive) | 10.2 µM (inactive) | 16.2 µM (inactive) | – | 16.4 µM (inactive) | 10.3 µM (inactive) | 18 µM (inactive) | 16.3 µM (inactive) | 1.57 µM (inactive) | 19 µM (inactive) | 16.4 µM (inactive) | 13.6 µM (inactive) | 13.2 µM (inactive) | 13.9 µM (inactive) | 15.8 µM (inactive) | 14.2 µM (inactive) | 15.1 µM (inactive)
CCC1=NC(C(F)(F)F)(C(F)(F)F)N=C(/N=C(/N)N(C)C(C(C)C)P(=O)(OC(C)C)OC(C)C)O1 (centres undefined) | > 100 µM (inactive) | > 100 µM (inactive) | > 100 µM (inactive) | > 100 µM (inactive) | > 100 µM (inactive) | > 100 µM (inactive) | > 100 µM (inactive) | > 100 µM (inactive) | > 100 µM (inactive) | > 100 µM (inactive) | > 100 µM (inactive) | > 100 µM (inactive) | > 100 µM (inactive) | > 100 µM (inactive) | > 100 µM (inactive) | > 100 µM (inactive) | > 100 µM (inactive) | > 100 µM (inactive) | > 100 µM (inactive)
N#Cc1c(O)nc2nn3c4ccc5ccccc5c4nnc3c2c1-c1ccc(Cl)cc1 | 1.58 µM (inactive) | 1.56 µM (inactive) | 6.24 µM (inactive) | 3.58 µM (inactive) | 2.27 µM (inactive) | 2.4 µM (inactive) | 3.3 µM (inactive) | 2.9 µM (inactive) | 3.16 µM (inactive) | 5.36 µM (inactive) | 4.57 µM (inactive) | 2.24 µM (inactive) | 2.52 µM (inactive) | 3.93 µM (inactive) | 1.69 µM (inactive) | 2.51 µM (inactive) | 2.94 µM (inactive) | 2.8 µM (inactive) | 5.89 µM (inactive)
CCCC(=O)Nc1cn(COC)c(C(=O)N2C[C@H]3C[C@@]34C2=CC(=O)c2[nH]cc(C)c24)n1 | 8.63 µM (inactive) | 0.71 µM (active) | 12.4 µM (inactive) | 8.71 µM (inactive) | 2.69 µM (inactive) | 4.68 µM (inactive) | 6.81 µM (inactive) | 6.04 µM (inactive) | 7.98 µM (inactive) | 13.1 µM (inactive) | 12.2 µM (inactive) | 12 µM (inactive) | 9.16 µM (inactive) | 11.2 µM (inactive) | 10.4 µM (inactive) | 5.12 µM (inactive) | 7.35 µM (inactive) | > 5 µM (inactive) | 10.1 µM (inactive)
CC(=O)N1C(C(=O)NN2CCOCC2)CSC1c1ccccc1 (centres undefined) | > 100 µM (inactive) | > 100 µM (inactive) | > 100 µM (inactive) | > 100 µM (inactive) | > 100 µM (inactive) | > 100 µM (inactive) | > 100 µM (inactive) | > 100 µM (inactive) | > 100 µM (inactive) | > 100 µM (inactive) | > 100 µM (inactive) | – | > 100 µM (inactive) | > 100 µM (inactive) | > 100 µM (inactive) | > 100 µM (inactive) | > 100 µM (inactive) | > 100 µM (inactive) | > 100 µM (inactive)
CCOc1ccc2c(c1)/C(=C(\C(Cl)=C(Cl)Cl)[N+](=O)[O-])N2 | > 100 µM (inactive) | 47.9 µM (inactive) | > 100 µM (inactive) | > 100 µM (inactive) | > 100 µM (inactive) | > 100 µM (inactive) | > 100 µM (inactive) | 69.3 µM (inactive) | > 100 µM (inactive) | > 100 µM (inactive) | > 100 µM (inactive) | > 100 µM (inactive) | > 100 µM (inactive) | 37.6 µM (inactive) | > 100 µM (inactive) | 66.2 µM (inactive) | > 100 µM (inactive) | > 100 µM (inactive) | –
Nc1nc(NCC2(CO)CCC2)cc(=O)[nH]1 | > 100 µM (inactive) | > 100 µM (inactive) | > 100 µM (inactive) | > 100 µM (inactive) | > 100 µM (inactive) | > 100 µM (inactive) | > 100 µM (inactive) | > 100 µM (inactive) | > 100 µM (inactive) | > 100 µM (inactive) | > 100 µM (inactive) | > 100 µM (inactive) | > 100 µM (inactive) | > 100 µM (inactive) | > 100 µM (inactive) | > 100 µM (inactive) | > 100 µM (inactive) | > 100 µM (inactive) | –
